Assay results reported in PubChem BioAssay (NCI).
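Method: 48-hour compound exposure of cells in 96-well plates, five concentrations, linear interpolation of endpoints. TGI denotes the concentration required for complete inhibition of growth.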

What was measured:
Assay in all cases: NCI-60 cell line screen, 48 h
MOLT-4 leukemia = test system: MOLT-4 leukemia
KM12 colon = test system: KM12 colon
HOP-92 NSCLC = test system: HOP-92 NSCLC
NCI/ADR-RES ovarian = test system: NCI/ADR-RES ovarian
HL-60(TB) leukemia = test system: HL-60(TB) leukemia
HS 578T breast = test system: HS 578T breast
NCI-H460 lung = test system: NCI-H460 lung
UO-31 renal = test system: UO-31 renal
U251 CNS = test system: U251 CNS
DU-145 prostate = test system: DU-145 prostate
UACC-62 melanoma = test system: UACC-62 melanoma
LOX IMVI melanoma = test system: LOX IMVI melanoma
SN12C renal = test system: SN12C renal
OVCAR-4 ovarian = test system: OVCAR-4 ovarian
CCRF-CEM leukemia = test system: CCRF-CEM leukemia
SR leukemia = test system: SR leukemia
MCF7 breast = test system: MCF7 breast
786-0 renal = test system: 786-0 renal
RPMI-8226 leukemia = test system: RPMI-8226 leukemia
SF-539 CNS = test system: SF-539 CNS
NCI-H226 lung = test system: NCI-H226 lung
HCT-116 colon = test system: HCT-116 colon
IGROV1 ovarian = test system: IGROV1 ovarian
OVCAR-3 ovarian = test system: OVCAR-3 ovarian
SK-OV-3 ovarian = test system: SK-OV-3 ovarian
MDA-MB-231 breast = test system: MDA-MB-231 breast
UACC-257 melanoma = test system: UACC-257 melanoma
SK-MEL-2 melanoma = test system: SK-MEL-2 melanoma
SW-620 colon = test system: SW-620 colon
NCI-H23 lung = test system: NCI-H23 lung
MDA-MB-435 = test system: MDA-MB-435
TK-10 renal = test system: TK-10 renal
HOP-62 NSCLC = test system: HOP-62 NSCLC
T-47D breast = test system: T-47D breast
K-562 leukemia = test system: K-562 leukemia
BT-549 breast = test system: BT-549 breast
HCT-15 colon = test system: HCT-15 colon
COLO 205 colon = test system: COLO 205 colon
MALME-3M melanoma = test system: MALME-3M melanoma
A498 renal = test system: A498 renal
PC-3 prostate = test system: PC-3 prostate
EKVX NSCLC = test system: EKVX NSCLC
OVCAR-5 ovarian = test system: OVCAR-5 ovarian
ACHN renal = test system: ACHN renal
SK-MEL-5 melanoma = test system: SK-MEL-5 melanoma
A549 NSCLC = test system: A549 NSCLC
SK-MEL-28 melanoma = test system: SK-MEL-28 melanoma
HCC-2998 colon = test system: HCC-2998 colon
SNB-75 CNS = test system: SNB-75 CNS
M14 melanoma = test system: M14 melanoma
SNB-19 CNS = test system: SNB-19 CNS
RXF 393 renal = test system: RXF 393 renal
OVCAR-8 ovarian = test system: OVCAR-8 ovarian
HT29 colon = test system: HT29 colon
SF-295 CNS = test system: SF-295 CNS
MDA-N = test system: MDA-N
SF-268 CNS = test system: SF-268 CNS
SNB-78 CNS = test system: SNB-78 CNS
NCI-H522 lung = test system: NCI-H522 lung
HOP-18 NSCLC = test system: HOP-18 NSCLC
CAKI-1 renal = test system: CAKI-1 renal
LXFL 529 NSCLC = test system: LXFL 529 NSCLC
KM20L2 colon = test system: KM20L2 colon
M19-MEL melanoma = test system: M19-MEL melanoma
DMS 273 small cell lung = test system: DMS 273 small cell lung
DLD-1 colon = test system: DLD-1 colon
DMS 114 small cell lung = test system: DMS 114 small cell lung
XF 498 CNS = test system: XF 498 CNS

For `CCC(=O)N/S(=N/S(=O)(=O)c1ccccc1)C(Cl)(Cl)Cl` (configuration not stated), the TGI (MOLT-4 leukemia) was over 100 µM, the TGI (KM12 colon) was over 100 µM and the TGI (HOP-92 NSCLC) was over 100 µM. For the same compound, the TGI (NCI/ADR-RES ovarian) was over 100 µM, the TGI (HL-60(TB) leukemia) was over 100 µM and the TGI (HS 578T breast) was over 100 µM. It also gave a TGI (NCI-H460 lung) of over 100 µM, a TGI (UO-31 renal) of over 100 µM and a TGI (U251 CNS) of over 100 µM. The TGI (DU-145 prostate) was over 100 µM, the TGI (UACC-62 melanoma) was over 100 µM and the TGI (LOX IMVI melanoma) was over 100 µM. It also gave a TGI (SN12C renal) of over 100 µM, a TGI (OVCAR-4 ovarian) of over 100 µM and a TGI (CCRF-CEM leukemia) of over 100 µM. The TGI (SR leukemia) was over 100 µM, the TGI (MCF7 breast) was over 100 µM and the TGI (786-0 renal) was over 100 µM. For the same compound, the TGI (RPMI-8226 leukemia) was over 100 µM, the TGI (SF-539 CNS) was over 100 µM and the TGI (NCI-H226 lung) was over 100 µM. For the same compound, the TGI (HCT-116 colon) was over 100 µM, the TGI (IGROV1 ovarian) was over 100 µM and the TGI (OVCAR-3 ovarian) was over 100 µM. The TGI (SK-OV-3 ovarian) was over 100 µM, the TGI (MDA-MB-231 breast) was over 100 µM and the TGI (UACC-257 melanoma) was over 100 µM. It also gave a TGI (SK-MEL-2 melanoma) of over 100 µM, a TGI (SW-620 colon) of over 100 µM and a TGI (NCI-H23 lung) of over 100 µM. It also gave a TGI (MDA-MB-435) of over 100 µM, a TGI (TK-10 renal) of over 100 µM and a TGI (HOP-62 NSCLC) of over 100 µM. For the same compound, the TGI (T-47D breast) was over 100 µM, the TGI (K-562 leukemia) was over 100 µM and the TGI (BT-549 breast) was over 100 µM. It also gave a TGI (HCT-15 colon) of over 100 µM, a TGI (COLO 205 colon) of over 100 µM and a TGI (MALME-3M melanoma) of over 100 µM. It also gave a TGI (A498 renal) of over 100 µM, a TGI (PC-3 prostate) of over 100 µM and a TGI (EKVX NSCLC) of over 100 µM. For the same compound, the TGI (OVCAR-5 ovarian) was over 100 µM, the TGI (ACHN renal) was over 100 µM and the TGI (SK-MEL-5 melanoma) was over 100 µM. The TGI (A549 NSCLC) was over 100 µM, the TGI (SK-MEL-28 melanoma) was over 100 µM and the TGI (HCC-2998 colon) was over 100 µM. The TGI (SNB-75 CNS) was over 100 µM, the TGI (M14 melanoma) was over 100 µM and the TGI (SNB-19 CNS) was over 100 µM. It also gave a TGI (RXF 393 renal) of over 100 µM, a TGI (OVCAR-8 ovarian) of over 100 µM and a TGI (HT29 colon) of over 100 µM. The TGI (SF-295 CNS) was over 100 µM, the TGI (MDA-N) was over 100 µM and the TGI (SF-268 CNS) was over 100 µM.
In the case of `CCCCCCC(O)CC[C@H]1CCC[C@@H](C)N1` (some centres not stated), the TGI (MOLT-4 leukemia) is reported as over 100 µM, the TGI (KM12 colon) is reported as under 10 µM and the TGI (HOP-92 NSCLC) is reported as over 100 µM. The TGI (HL-60(TB) leukemia) was over 100 µM, the TGI (NCI-H460 lung) was over 100 µM and the TGI (UO-31 renal) was over 100 µM. It also gave a TGI (U251 CNS) of over 31.6 µM, a TGI (SNB-78 CNS) of over 100 µM and a TGI (UACC-62 melanoma) of over 100 µM. For the same compound, the TGI (LOX IMVI melanoma) was over 100 µM, the TGI (SN12C renal) was over 100 µM and the TGI (OVCAR-4 ovarian) was under 10 µM. The TGI (CCRF-CEM leukemia) was over 100 µM, the TGI (NCI-H522 lung) was over 100 µM and the TGI (SR leukemia) was over 100 µM. The TGI (HOP-18 NSCLC) was over 100 µM, the TGI (786-0 renal) was under 10 µM and the TGI (CAKI-1 renal) was over 100 µM. It also gave a TGI (RPMI-8226 leukemia) of over 100 µM, a TGI (SF-539 CNS) of over 100 µM and a TGI (NCI-H226 lung) of over 100 µM. It also gave a TGI (HCT-116 colon) of over 100 µM, a TGI (IGROV1 ovarian) of over 100 µM and a TGI (OVCAR-3 ovarian) of under 10 µM. It also gave a TGI (LXFL 529 NSCLC) of over 100 µM, a TGI (KM20L2 colon) of under 10 µM and a TGI (SK-OV-3 ovarian) of over 100 µM. It also gave a TGI (M19-MEL melanoma) of over 31.6 µM, a TGI (UACC-257 melanoma) of under 10 µM and a TGI (SK-MEL-2 melanoma) of under 10 µM. The TGI (SW-620 colon) was over 100 µM, the TGI (NCI-H23 lung) was under 10 µM and the TGI (TK-10 renal) was over 100 µM. It also gave a TGI (HOP-62 NSCLC) of over 31.6 µM, a TGI (DMS 273 small cell lung) of over 100 µM and a TGI (K-562 leukemia) of over 100 µM. It also gave a TGI (HCT-15 colon) of over 31.6 µM, a TGI (COLO 205 colon) of over 31.6 µM and a TGI (MALME-3M melanoma) of over 100 µM. It also gave a TGI (A498 renal) of over 10 µM, a TGI (EKVX NSCLC) of over 100 µM and a TGI (OVCAR-5 ovarian) of under 10 µM. It also gave a TGI (ACHN renal) of over 100 µM, a TGI (SK-MEL-5 melanoma) of over 100 µM and a TGI (A549 NSCLC) of over 100 µM. For the same compound, the TGI (SK-MEL-28 melanoma) was over 31.6 µM, the TGI (DLD-1 colon) was over 100 µM and the TGI (HCC-2998 colon) was over 100 µM. For the same compound, the TGI (SNB-75 CNS) was over 31.6 µM, the TGI (M14 melanoma) was over 100 µM and the TGI (SNB-19 CNS) was under 10 µM. For the same compound, the TGI (RXF 393 renal) was over 100 µM, the TGI (OVCAR-8 ovarian) was under 10 µM and the TGI (DMS 114 small cell lung) was over 31.6 µM. The TGI (HT29 colon) was over 31.6 µM, the TGI (SF-295 CNS) was over 31.6 µM and the TGI (SF-268 CNS) was over 31.6 µM.
Work on `Clc1ccccc1CN1COc2c(ccc3cccnc23)C1` yielded a TGI (MOLT-4 leukemia) of 6.77 µM, a TGI (KM12 colon) of 18.1 µM and a TGI (HOP-92 NSCLC) of 7.6 µM. For the same compound, the TGI (HL-60(TB) leukemia) was 4.33 µM, the TGI (NCI-H460 lung) was 20.8 µM and the TGI (UO-31 renal) was 7.2 µM. It also gave a TGI (U251 CNS) of 19.1 µM, a TGI (SNB-78 CNS) of 14 µM and a TGI (UACC-62 melanoma) of 8.56 µM. The TGI (LOX IMVI melanoma) was 22.5 µM, the TGI (SN12C renal) was 23.2 µM and the TGI (OVCAR-4 ovarian) was 14.6 µM. For the same compound, the TGI (CCRF-CEM leukemia) was 1.74 µM, the TGI (NCI-H522 lung) was 4.53 µM and the TGI (786-0 renal) was 14.8 µM. It also gave a TGI (CAKI-1 renal) of 12.8 µM, a TGI (RPMI-8226 leukemia) of 7.15 µM and a TGI (SF-539 CNS) of 11.7 µM. For the same compound, the TGI (NCI-H226 lung) was 19.4 µM, the TGI (HCT-116 colon) was 9.66 µM and the TGI (IGROV1 ovarian) was 11.6 µM. The TGI (OVCAR-3 ovarian) was 11.2 µM, the TGI (KM20L2 colon) was 35.9 µM and the TGI (SK-OV-3 ovarian) was 19.9 µM. It also gave a TGI (M19-MEL melanoma) of 15.1 µM, a TGI (UACC-257 melanoma) of 8.2 µM and a TGI (SK-MEL-2 melanoma) of 6.63 µM. It also gave a TGI (SW-620 colon) of 12.4 µM, a TGI (NCI-H23 lung) of 5.34 µM and a TGI (TK-10 renal) of 23.2 µM. For the same compound, the TGI (HOP-62 NSCLC) was 7.25 µM, the TGI (DMS 273 small cell lung) was 11.1 µM and the TGI (K-562 leukemia) was 4.51 µM. The TGI (HCT-15 colon) was 14.8 µM, the TGI (COLO 205 colon) was 24.8 µM and the TGI (MALME-3M melanoma) was 16.3 µM. For the same compound, the TGI (A498 renal) was 22.1 µM, the TGI (EKVX NSCLC) was 15.9 µM and the TGI (XF 498 CNS) was 22.4 µM. It also gave a TGI (OVCAR-5 ovarian) of 22.8 µM, a TGI (ACHN renal) of 13.2 µM and a TGI (SK-MEL-5 melanoma) of 8.93 µM. It also gave a TGI (A549 NSCLC) of 14.2 µM, a TGI (SK-MEL-28 melanoma) of 14.9 µM and a TGI (DLD-1 colon) of 17.5 µM. For the same compound, the TGI (HCC-2998 colon) was 19.6 µM, the TGI (SNB-75 CNS) was 21.1 µM and the TGI (M14 melanoma) was 10.8 µM. It also gave a TGI (SNB-19 CNS) of over 100 µM, a TGI (OVCAR-8 ovarian) of 15.3 µM and a TGI (DMS 114 small cell lung) of 6.19 µM. The TGI (SF-295 CNS) was 10.6 µM and the TGI (SF-268 CNS) was 13.5 µM.
